From the supplement of paper PMC8882468

Columns and labels:
Assay in all cases: CTG-3D luminescence at 96 h relative to day-0 seeding control (ratio to day 0); higher = more growth / less cytotoxicity; PDxO 3D drug screen (set 2), 96 h, CTG-3D normalised to day-0 seeding control.
[1] = system: HCI-015 (organoid from a triple-negative breast cancer xenograft)
[2] = system: HCI-019 (organoid from a triple-negative breast cancer xenograft)
[3] = system: HCI-008 (organoid from a HER2-enriched breast cancer xenograft)
[4] = system: HCI-027 (organoid from a triple-negative breast cancer xenograft)
[5] = system: HCI-025 (organoid from a breast cancer xenograft)

CO[C@H]1C[C@@H]2CC[C@@H](C)[C@@](O)(O2)C(=O)C(=O)N2CCCC[C@H]2C(=O)O[C@H]([C@H](C)C[C@@H]2CC[C@@H](O)[C@H](OC)C2)CC(=O)[C@H](C)/C=C(\C)[C@@H](O)[C@@H](OC)C(=O)[C@H](C)C[C@H](C)/C=C/C=C/C=C/1C [rapamycin]
CTG-3D luminescence at 96 h
Conditions | 12.5 pM | 0.00025 µM | 0.005 µM | 0.1 µM | 1 µM | 10 µM | 100 µM | 625 fM
[1], days in culture: 333 | 1.29 | 0.897 | 0.593 | 1.1 | 0.612 | 0.447 | 0.0119 | 1.04
[1], days in culture: 355 | 1.27 | 2.02 | 0.979 | 1.55 | 1.15 | 1.05 | 0.0149 | 1.06
[1], days in culture: 369 | 1.79 | 1.03 | 1.2 | 1.39 | 1.48 | 0.955 | 0.00715 | 1.62
[2], days in culture: 173 | 1.07 | 0.905 | 0.844 | 1.93 | 1.36 | 1.43 | 0.0117 | 1.08
[2], days in culture: 194 | 1.66 | 1.04 | 1.1 | 0.588 | 1.28 | 1.54 | 0.0107 | 2.69
[2], days in culture: 215 | 1.12 | 0.5 | 0.486 | 1.15 | 0.713 | 0.457 | 0.00468 | 1.43
[3], days in culture: 325 | 1.02 | 2.07 | 1.15 | 1.85 | 1.96 | 1.63 | 0.0243 | 1.04
[3], days in culture: 340 | 0.377 | 2.04 | 1.44 | 0.883 | 1.17 | – | 0.0122 | 0.721
[3], days in culture: 354 | 1.17 | 0.924 | 1.28 | 0.845 | 0.613 | 1.04 | 0.0113 | 0.658
[3], days in culture: 382 | 1.67 | 1.28 | 0.869 | 1.12 | 0.658 | 1.06 | 0.0068 | 1.24
[4], days in culture: 145 | 1.48 | 1.37 | 1.25 | 1.15 | 1.16 | 0.781 | 0.00647 | 1.5
[4], days in culture: 158 | 1.19 | 1.63 | 1.42 | 2.35 | 1.1 | 2.43 | 0.0139 | 4.51
[4], days in culture: 164 | 3.14 | 1.63 | 2.5 | 1.4 | 1.59 | 1.86 | 0.0163 | 1.82
[4], days in culture: 176 | 3.28 | 2.48 | 0.934 | 2.11 | 1.69 | 1.25 | 0.00482 | 2.21
[4], days in culture: 186 | 1.07 | 0.887 | 1.74 | 1.07 | 0.381 | 1.97 | 0.00722 | 0.992
[5], days in culture: 175 | 1.08 | 1.22 | 1.44 | 1.39 | 1.87 | 1.67 | 0.0257 | 0.977
[5], days in culture: 189 | 1.35 | 1.19 | 1.11 | 0.862 | 0.888 | 0.979 | 0.0056 | 1.27
[5], days in culture: 212 | 2.1 | 0.842 | 1.53 | 1.27 | 0.387 | 1.15 | 0.0154 | 1.5
[5], days in culture: 224 | 1.83 | 1.19 | 0.969 | 0.734 | 1.53 | 1.31 | 0.00743 | 1.36

CS(=O)(=O)CCNCc1ccc(-c2ccc3ncnc(Nc4ccc(OCc5cccc(F)c5)c(Cl)c4)c3c2)o1 [lapatinib]
CTG-3D luminescence at 96 h
Conditions | 12.5 pM | 0.00025 µM | 0.005 µM | 0.1 µM | 1 µM | 10 µM | 100 µM | 625 fM
[1], days in culture: 333 | 1.35 | 1.46 | 1.34 | 1.08 | 0.661 | 0.251 | 0.00814 | 2.63
[1], days in culture: 355 | 3.61 | 3.24 | 1.08 | 1.64 | 1.45 | 0.567 | 0.0071 | 2.45
[1], days in culture: 369 | 2.34 | 1.5 | 2.2 | 1.6 | 2.32 | 0.511 | 0.0242 | 1.79
[2], days in culture: 173 | 1.7 | 2.33 | 1.14 | 2.61 | 1.9 | 0.415 | 0.078 | 1.93
[2], days in culture: 194 | 1.47 | 2.84 | 1.45 | 2.84 | 1.7 | 0.531 | 0.0607 | 2.78
[2], days in culture: 215 | 1.96 | 2.03 | 1.85 | 1.67 | 1.66 | 0.323 | 0.00321 | 2.07
[3], days in culture: 325 | 1.68 | 1.81 | 1.73 | 3.2 | 2.32 | 0.898 | 0.0242 | 1.5
[3], days in culture: 340 | 1.22 | 2.1 | 1.96 | 1.35 | 2.47 | – | 0.0374 | 1.39
[3], days in culture: 354 | 1.62 | 1.04 | 2.27 | 1.42 | 1.52 | 0.935 | 0.00653 | 1.13
[3], days in culture: 382 | 1.61 | 1.47 | 1.81 | 1.52 | 1.25 | 0.425 | 0.00105 | 1.22
[4], days in culture: 145 | 1.6 | 2.25 | 1.81 | 1.29 | 0.739 | 0.0785 | 0.00359 | 2.05
[4], days in culture: 158 | 1.68 | 2.65 | 3.39 | 2.02 | 2.72 | 0.902 | 0.00689 | 5.17
[4], days in culture: 164 | 2.91 | 1.7 | 1.91 | 1.36 | 1.57 | 0.126 | 0.00219 | 1.64
[4], days in culture: 176 | 4.02 | 2.45 | 1.33 | 2.41 | 1.57 | 0.0427 | 0.00427 | 1.78
[4], days in culture: 186 | 1.46 | 2.11 | 2.88 | 2.74 | 0.49 | 0.0763 | 0.00176 | 2.77
[5], days in culture: 175 | 1.92 | 2.05 | 1.45 | 2.22 | 2.73 | 1.66 | 0.00817 | 1.88
[5], days in culture: 189 | 1.99 | 2.19 | 1.58 | 3.08 | 1.26 | 0.872 | 0.00432 | 2.46
[5], days in culture: 212 | 1.59 | 3.22 | 4.13 | 3.86 | 1.17 | 0.527 | 0.00417 | 1.69
[5], days in culture: 224 | 2.14 | 1.93 | 1.8 | 1.82 | 1.84 | 0.896 | 0.000609 | 1.83

Nc1cc(C(F)(F)F)c(-c2cc(N3CCOCC3)nc(N3CCOCC3)n2)cn1 [buparlisib]
CTG-3D luminescence at 96 h
Conditions | 12.5 pM | 0.00025 µM | 0.005 µM | 0.1 µM | 1 µM | 10 µM | 100 µM | 625 fM
[1], days in culture: 333 | 2.29 | 1.36 | 1.57 | 1.43 | 0.645 | 0.204 | 0.269 | 1.16
[1], days in culture: 355 | 1.31 | 3.75 | 1.42 | 1.76 | 0.946 | 0.466 | 0.46 | 2.06
[1], days in culture: 369 | 1.92 | 1.66 | 2.47 | 1.92 | 0.94 | 0.378 | 0.599 | 1.66
[2], days in culture: 173 | 2.34 | 1.59 | 2.11 | 1.58 | 1.45 | 0.425 | 0.353 | 1.61
[2], days in culture: 194 | 1.92 | 1.72 | 2.05 | 2.27 | 0.78 | 0.454 | 0.358 | 3.95
[2], days in culture: 215 | 1.75 | 1.27 | 1.46 | 1.85 | 0.763 | 0.382 | 0.188 | 1.2
[3], days in culture: 325 | 0.757 | 2.89 | 2.4 | 2.51 | 1.17 | 0.647 | 0.313 | 1.94
[3], days in culture: 340 | 0.632 | 2.38 | 1.94 | 1.55 | 1.56 | – | 0.305 | 1.04
[3], days in culture: 354 | 0.796 | 1.19 | 2.59 | 1.46 | 0.578 | 0.294 | 0.327 | 1.16
[3], days in culture: 382 | 1.52 | 1.82 | 1.45 | 1.71 | 0.652 | 0.363 | 0.104 | 1.9
[4], days in culture: 145 | 1.54 | 1.52 | 1.25 | 1.43 | 0.692 | 0.328 | 0.299 | 2.3
[4], days in culture: 158 | 2.38 | 2.8 | 2.6 | 2.57 | 0.949 | 0.818 | 0.172 | 2.61
[4], days in culture: 164 | 1.85 | 1.65 | 1.59 | 2.16 | 0.625 | 0.478 | 0.612 | 1.57
[4], days in culture: 176 | 4.08 | 3.24 | 0.833 | 1.54 | 0.26 | 0.384 | 0.144 | 2.31
[4], days in culture: 186 | 1.86 | 1.61 | 2.44 | 1.65 | 0.528 | 0.223 | 0.169 | 2.21
[5], days in culture: 175 | 1.38 | 1.85 | 1.95 | 1.88 | 1.75 | 0.433 | 0.118 | 1.71
[5], days in culture: 189 | 2.47 | 2.03 | 1.96 | 1.69 | 1.36 | 0.246 | 0.0627 | 2.83
[5], days in culture: 212 | 3.39 | 3.81 | 2.06 | 1.13 | 1.13 | 0.331 | 0.0312 | 1.54
[5], days in culture: 224 | 2.03 | 2.32 | 1.5 | 1.44 | 1.75 | 0.339 | 0.136 | 1.69
